{"source": "patent US20100190788A1", "about": "“Amide derivatives as kinase inhitors” (priority 2005, published 2010)", "data": [{"target": "T1, human ROCKα/ROCKII mix (Homo sapiens, UniProt O75116)", "T1 construct": "purchased Upstate Biotechnology 14-451", "T1 sequence (O75116 whole entry)": "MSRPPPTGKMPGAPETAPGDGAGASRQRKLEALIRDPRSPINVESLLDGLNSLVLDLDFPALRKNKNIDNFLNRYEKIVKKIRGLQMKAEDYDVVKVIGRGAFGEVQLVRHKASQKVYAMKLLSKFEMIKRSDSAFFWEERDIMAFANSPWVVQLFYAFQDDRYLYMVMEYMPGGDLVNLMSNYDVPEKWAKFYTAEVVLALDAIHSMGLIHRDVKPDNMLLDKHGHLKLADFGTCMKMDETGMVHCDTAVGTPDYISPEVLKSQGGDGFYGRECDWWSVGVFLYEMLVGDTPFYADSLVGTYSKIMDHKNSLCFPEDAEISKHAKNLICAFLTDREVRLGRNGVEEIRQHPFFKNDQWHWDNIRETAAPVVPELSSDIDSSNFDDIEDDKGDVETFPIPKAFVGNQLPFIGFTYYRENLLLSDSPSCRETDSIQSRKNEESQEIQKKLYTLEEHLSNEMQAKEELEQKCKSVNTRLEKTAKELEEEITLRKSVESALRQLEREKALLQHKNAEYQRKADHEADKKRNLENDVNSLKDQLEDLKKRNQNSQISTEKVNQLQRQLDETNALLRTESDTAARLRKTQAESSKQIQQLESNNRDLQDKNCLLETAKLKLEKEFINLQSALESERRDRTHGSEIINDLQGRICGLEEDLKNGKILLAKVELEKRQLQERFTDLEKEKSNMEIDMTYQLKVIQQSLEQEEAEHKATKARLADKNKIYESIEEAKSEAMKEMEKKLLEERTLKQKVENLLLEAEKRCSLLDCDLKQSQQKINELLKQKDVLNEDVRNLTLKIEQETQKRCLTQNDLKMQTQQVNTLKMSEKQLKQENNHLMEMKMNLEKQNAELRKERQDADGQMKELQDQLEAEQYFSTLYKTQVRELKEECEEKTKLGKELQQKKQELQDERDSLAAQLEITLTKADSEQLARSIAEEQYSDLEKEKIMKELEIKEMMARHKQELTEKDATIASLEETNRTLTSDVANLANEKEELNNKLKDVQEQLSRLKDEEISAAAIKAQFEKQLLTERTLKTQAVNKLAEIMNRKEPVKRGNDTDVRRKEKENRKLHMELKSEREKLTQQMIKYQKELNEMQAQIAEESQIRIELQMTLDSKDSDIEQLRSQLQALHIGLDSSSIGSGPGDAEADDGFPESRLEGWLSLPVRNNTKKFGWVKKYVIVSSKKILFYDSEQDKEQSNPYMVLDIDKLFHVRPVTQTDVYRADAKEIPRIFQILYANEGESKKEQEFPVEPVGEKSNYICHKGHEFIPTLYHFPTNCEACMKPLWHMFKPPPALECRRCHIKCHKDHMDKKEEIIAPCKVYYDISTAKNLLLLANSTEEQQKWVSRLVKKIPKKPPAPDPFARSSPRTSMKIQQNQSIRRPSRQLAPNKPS", "assay": "ROCK inhibition, fluorescence polarization (FP) assay with ROCK IMAP Kit", "format": "biochemical", "conditions": "Table 3, compounds of Formula III20", "units": {"IC50": "µM"}, "values": [{"smiles": "NC(CC(=O)N1CCCC1c1ccc(Cl)c(Cl)c1)c1ccc(C(=O)Nc2ccncc2)cc1", "note": "(centres unmarked) [Compound 91, 4-{1-amino-3-[2-(3,4-dichloro-phenyl)-pyrrolidin-1-yl]-3-oxo-propyl}-N-pyridin-4-yl-benzamide]", "IC50": "< 0.5"}, {"smiles": "NC(CC(=O)N1CCCCC1c1ccccc1)c1ccc(C(=O)Nc2ccncc2)cc1", "note": "(centres unmarked) [Compound 92, 4-[1-amino-3-oxo-3-(2-phenyl-piperidin-1-yl)-propyl]-N-pyridin-4-yl-benzamide]", "IC50": "< 0.5"}, {"smiles": "NC(CC(=O)N1CCCCC1c1cccc2ccccc12)c1ccc(C(=O)Nc2ccncc2)cc1", "note": "(centres unmarked) [Compound 93, 4-[1-amino-3-(2-naphthalen-1-yl-piperidin-1-yl)-3-oxo-propyl]-N-pyridin-4-yl-benzamide]", "IC50": "< 0.5"}, {"smiles": "NC(CC(=O)N1CCCCC1c1ccc(Cl)cc1)c1ccc(C(=O)Nc2ccncc2)cc1", "note": "(centres unmarked) [Compound 94, 4-{1-amino-3-[2-(4-chloro-phenyl)-piperidin-1-yl]-3-oxo-propyl}-N-pyridin-4-yl-benzamide]", "IC50": "< 0.5"}, {"smiles": "NC(CC(=O)N1CCCCC1c1cc(Cl)ccc1Cl)c1ccc(C(=O)Nc2ccncc2)cc1", "note": "(centres unmarked) [Compound 95, 4-{1-amino-3-[2-(2,5-dichloro-phenyl)-piperidin-1-yl]-3-oxo-propyl}-N-pyridin-4-yl-benzamide]", "IC50": "< 0.5"}, {"smiles": "COc1ccc(Cl)cc1C1CCCCN1C(=O)CC(N)c1ccc(C(=O)Nc2ccncc2)cc1", "note": "(centres unmarked) [Compound 96, 4-{1-amino-3-[2-(5-chloro-2-methoxy-phenyl)-piperidin-1-yl]-3-oxo-propyl}-N-pyridin-4-yl-benzamide]", "IC50": "< 0.5"}, {"smiles": "NC(CC(=O)N1CCCCC1c1ccc(F)cc1)c1ccc(C(=O)Nc2ccncc2)cc1", "note": "(centres unmarked) [Compound 97, 4-{1-amino-3-[2-(4-fluoro-phenyl)-piperidin-1-yl]-3-oxo-propyl}-N-pyridin-4-yl-benzamide]", "IC50": "< 0.5"}, {"smiles": "COc1cccc(C2CCCCN2C(=O)CC(N)c2ccc(C(=O)Nc3ccncc3)cc2)c1", "note": "(centres unmarked) [Compound 98, 4-{1-amino-3-[2-(3-methoxy-phenyl)-piperidin-1-yl]-3-oxo-propyl}-N-pyridin-4-yl-benzamide]", "IC50": "< 0.5"}, {"smiles": "NC(CC(=O)N1CCOCC1c1ccccc1)c1ccc(C(=O)Nc2ccncc2)cc1", "note": "(centres unmarked) [Compound 99, 4-[1-Amino-3-oxo-3-(3-phenyl-morpholin-4-yl)-propyl]-N-pyridin-4-yl-benzamide]", "IC50": "< 0.5"}, {"smiles": "NC(CC(=O)N1CCOCC1c1ccc(Cl)cc1)c1ccc(C(=O)Nc2ccncc2)cc1", "note": "(centres unmarked) [Compound 100, 4-{1-amino-3-[3-(4-chloro-phenyl)-morpholin-4-yl]-3-oxo-propyl}-N-pyridin-4-yl-benzamide]", "IC50": "< 0.5"}, {"smiles": "NC(CC(=O)N1CCOCC1c1ccc(F)cc1)c1ccc(C(=O)Nc2ccncc2)cc1", "note": "(centres unmarked) [Compound 101, 4-{1-amino-3-[3-(4-fluoro-phenyl)-morpholin-4-yl]-3-oxo-propyl}-N-pyridin-4-yl-benzamide]", "IC50": "< 0.5"}, {"smiles": "NC(CC(=O)N1CCc2c(Cl)cccc2C1)c1ccc(C(=O)Nc2ccncc2)cc1", "note": "(centres unmarked) [Compound 102, 4-[1-amino-3-(5-chloro-3,4-dihydro-1H-isoquinolin-2-yl)-3-oxo-propyl]-N-pyridin-4-yl-benzamide]", "IC50": "< 0.5"}, {"smiles": "NC(CC(=O)N1CCc2ccc(Cl)cc2C1)c1ccc(C(=O)Nc2ccncc2)cc1", "note": "(centres unmarked) [Compound 103, 4[1-amino-3-(7-chloro-3,4-dihydro-1H-isoquinolin-2-yl)-3-oxo-propyl]-N-pyridin-4-yl-benzamide]", "IC50": "< 0.5"}, {"smiles": "NC(CC(=O)N1CCc2ccc(F)cc2C1)c1ccc(C(=O)Nc2ccncc2)cc1", "note": "(centres unmarked) [Compound 104, 4-[1-amino-3-(7-fluoro-3,4-dihydro-1H-isoquinolin-2-yl)-3-oxo-propyl]-N-pyridin-4-yl-benzamide]", "IC50": "< 0.5"}, {"smiles": "NC(CC(=O)N1Cc2ccccc2C1)c1ccc(C(=O)Nc2ccncc2)cc1", "note": "(centres unmarked) [Compound 105, 4-[1-amino-3-(1,3-dihydro-isoindol-2-yl)-3-oxo-propyl]-N-pyridin-4-yl-benzamide]", "IC50": "< 0.5"}, {"smiles": "NC(CC(=O)N1CCSC1)c1ccc(C(=O)Nc2ccncc2)cc1", "note": "(centres unmarked) [Compound 106, 4-(1-amino-3-oxo-3-thiazolidin-3-yl-propyl)-N-pyridin-4-yl-benzamide]", "IC50": "< 0.5"}, {"smiles": "NC(CC(=O)N1CCCCC1)c1ccc(C(=O)Nc2ccncc2)cc1", "note": "(centres unmarked) [Compound 107, 4-(1-amino-3-oxo-3-piperidin-1-yl-propyl)-N-pyridin-4-yl-benzamide]", "IC50": "< 0.5"}, {"smiles": "CC1CC(C)CN(C(=O)CC(N)c2ccc(C(=O)Nc3ccncc3)cc2)C1", "note": "(centres unmarked) [Compound 108, 4-[1-amino-3-(3,5-dimethyl-piperidin-1-yl)-3-oxo-propyl]-N-pyridin-4-yl-benzamide]", "IC50": "< 0.5"}, {"smiles": "NC(CC(=O)N1CCCC(CO)C1)c1ccc(C(=O)Nc2ccncc2)cc1", "note": "(centres unmarked) [Compound 109, 4-[1-amino-3-(3-hydroxymethyl-piperidin-1-yl)-3-oxo-propyl]-N-pyridin-4-yl-benzamide]", "IC50": "< 0.5"}, {"smiles": "NC(CC(=O)N1CCCC2CCCCC21)c1ccc(C(=O)Nc2ccncc2)cc1", "note": "(centres unmarked) [Compound 110, 4-[1-amino-3-(octahydro-quinolin-1-yl)-3-oxo-propyl]-N-pyridin-4-yl-benzamide]", "IC50": "< 0.5"}, {"smiles": "NC(CC(=O)N1CCC(O)(c2ccccc2)CC1)c1ccc(C(=O)Nc2ccncc2)cc1", "note": "(centres unmarked) [Compound 111, 4-[1-amino-3-(4-hydroxy-4-phenyl-piperidin-1-yl)-3-oxo-propyl]-N-pyridin-4-yl-benzamide]", "IC50": "< 0.5"}, {"smiles": "NC(CC(=O)N1CCOCC1)c1ccc(C(=O)Nc2ccncc2)cc1", "note": "(centres unmarked) [Compound 112, 4-(1-amino-3-morpholin-4-yl-3-oxo-propyl)-N-pyridin-4-yl-benzamide]", "IC50": "< 0.5"}, {"smiles": "CC1CN(C(=O)CC(N)c2ccc(C(=O)Nc3ccncc3)cc2)CC(C)O1", "note": "(centres unmarked) [Compound 113, 4-[1-amino-3-(2,6-dimethyl-morpholin-4-yl)-3-oxo-propyl]-N-pyridin-4-yl-benzamide]", "IC50": "< 0.5"}, {"smiles": "CC(C)N1CCN(C(=O)CC(N)c2ccc(C(=O)Nc3ccncc3)cc2)CC1", "note": "(centres unmarked) [Compound 114, 4-[1-amino-3-(4-isopropyl-piperazin-1-yl)-3-oxo-propyl]-N-pyridin-4-yl-benzamide]", "IC50": "< 0.5"}, {"smiles": "NC(CC(=O)N1CCN(CCO)CC1)c1ccc(C(=O)Nc2ccncc2)cc1", "note": "(centres unmarked) [Compound 115, 4-{1-amino-3-[4-(2-hydroxy-ethyl)-piperazin-1-yl]-3-oxo-propyl}-N-pyridin-4-yl-benzamide]", "IC50": "< 0.5"}, {"smiles": "NC(CC(=O)N1CCN(c2ccccc2)CC1)c1ccc(C(=O)Nc2ccncc2)cc1", "note": "(centres unmarked) [Compound 116, 4-[1-amino-3-oxo-3-(4-phenyl-piperazin-1-yl)-propyl]-N-pyridin-4-yl-benzamide]", "IC50": "< 0.5"}, {"smiles": "NC(CC(=O)N1CCC(c2ccccc2)CC1)c1ccc(C(=O)Nc2ccncc2)cc1", "note": "(centres unmarked) [Compound 117, 4-[1-amino-3-(4-phenyl-piperidin-1-yl)-3-oxo-propyl]-N-pyridin-4-yl-benzamide]", "IC50": "< 0.5"}, {"smiles": "NC(CC(=O)N1CC=C(c2ccc(F)cc2)CC1)c1ccc(C(=O)Nc2ccncc2)cc1", "note": "(centres unmarked) [Compound 118, 4-{1-amino-3[4-(4-fluoro-phenyl)-3,6-dihydro-2H-pyridin-1-yl]-3-oxo-propyl}-N-pyridin-4-yl-benzamide]", "IC50": "< 0.5"}, {"smiles": "NC(CC(=O)N1CCC(Cc2ccccc2)CC1)c1ccc(C(=O)Nc2ccncc2)cc1", "note": "(centres unmarked) [Compound 119, 4-[1-amino-3-(4-benzyl-piperidin-1-yl)-3-oxo-propyl]-N-pyridin-4-yl-benzamide]", "IC50": "< 0.5"}]}]}
